# Experiment: recombinant UMI read abundance after kanamycin selection (control-corrected) (log10(CPM+1)); higher = more efficient recombination; extreme values may be limits of the assay; sequences stand for … in AGTGCAGAGAAAATCGGCCAGTTTTCTCTGCCTGCAGTCCGCATGCCGTGGGACCCCTTGGGTTCTAACCTGTTGCCTAGATTTATGCAGCGGACTGCCTTTCTCCCAAAGTGATAAACCGG…AGGTTGGTTTCACT; site = the 11-nt donor
# Summary of the method: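 For the IS621 bridge recombinase, a pooled Escherichia coli screen tested donor and donor-binding-loop pairs. Cells received the pair library together with a target plasmid encoding a fixed target and T7-inducible recombinase, then went onto IPTG (0.07 mM) plus kanamycin or unselected plates in duplicate. After PCR across the donor–target junction and sequencing, recombinant UMI counts were normalized to CPM, averaged, and scaled by control-derived factors. Each value is given as log10(CPM+1).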
row,Sequence,recombinant UMI read abundance (log10)
1,CGATCATCATGGACCGGTTTTCCCGGTAATCCGTATTTGCT (site GGAACATCTAG),0.00516
2,CGATCATCATGGACCGGTTTTCCCGGTAATCCGTATTTGCT (site GGATCACCTAG),0.00443
3,CGATCATCATGGACCGGTTTTCCCGGTAATCCGTATTTGCT (site GGATCATCTAG),0.606
4,CGATCATCATGGACCGGTTTTCCCGGTAATCCGTATTTGCT (site GGATCATCTAT),0.0067
5,CGATCATCATGGACCGGTTTTCCCGGTAATCCGTATTTGCT (site GGATCATCTGG),0
6,CGATCATCATGGACCGGTTTTCCCGGTAATCCGTATTTGCT (site GGATCGTCTAG),0.00614
7,CGATCATCATGGACCGGTTTTCCCGGTAATCCGTATTTGCT (site GGATGATCTAG),0
8,CGATCATCATGGACCGGTTTTCCCGGTAATCCGTATTTGCT (site GGTTCATCTAG),0
9,CGATCATCATGGACCGGTTTTCCCGGTAATCCGTATTTGCT (site TGACCATCTAG),1.21
10,CGATCATCATGGACCGGTTTTCCCGGTAATCCGTATTTGCT (site TGATAATCTAG),0
11,CGATCATCATGGACCGGTTTTCCCGGTAATCCGTATTTGCT (site TGATCAACTAG),0
12,CGATCATCATGGACCGGTTTTCCCGGTAATCCGTATTTGCT (site TGATCATCTAC),0.00378
13,CGATCATCATGGACCGGTTTTCCCGGTAATCCGTATTTGCT (site TGATCATCTAG),0.864
14,CGATCATCATGGACCGGTTTTCCCGGTAATCCGTATTTGCT (site TGATCATCTCG),0.00793
15,CGATCATCATGGACCGGTTTTCCCGGTAATCCGTATTTGCT (site TGATCCTCTAG),0
16,CGATCATCATGGACCGGTTTTCCCGGTAATCCGTATTTGCT (site TGCTCATCTAG),0
17,CGATCATCATGGACCGGTTTTCCCGGTAATCCGTATTTGCT (site TTATCATCTAG),1.88
18,CGATCATCATGGACCGGTTTTCCCGGTAATCCGTATTTGTA (site CGATCATCTAG),0
19,CGATCATCATGGACCGGTTTTCCCGGTAATCCGTATTTGTA (site CGATCATCTTA),2.57

row,Sequence,recombinant UMI read abundance (log10)
1,CGATCATCATGGACCGGTTTTCCCGGTAATCCGTATTTGTT (site CGATCATCTAA),1.4
2,CGATCATCATGGACCGGTTTTCCCGGTAATCCGTATTTGTT (site CGATCATCTAC),0
3,CGATCATCATGGACCGGTTTTCCCGGTAATCCGTATTTGTT (site CGATCATCTAG),0
4,CGATCATCATGGACCGGTTTTCCCGGTAATCCGTATTTGTT (site CGATCATCTAT),0.00529
5,CGATCCACATGGACCGGTTTTCCCGGTAATCCGTATTTGCT (site CGATCATCTAG),0
6,CGATCCACATGGACCGGTTTTCCCGGTAATCCGTATTTGCT (site CGATCCACTAG),2.75
7,CGATCCACATGGACCGGTTTTCCCGGTAATCCGTATTTGTT (site CGATCAACTAA),0.00541
8,CGATCCACATGGACCGGTTTTCCCGGTAATCCGTATTTGTT (site CGATCCACTAA),2.11
9,CGATCCACATGGACCGGTTTTCCCGGTAATCCGTATTTGTT (site CGATCGACTAA),0.00891
10,CGATCCACATGGACCGGTTTTCCCGGTAATCCGTATTTGTT (site CGATCTACTAA),0.00733
11,CGATCGTCATGGACCGGTTTTCCCGGTAATCCGTATTTGCC (site CGATCATCTAG),0
12,CGATCGTCATGGACCGGTTTTCCCGGTAATCCGTATTTGCC (site CGATCGTCTGG),1.05
13,CGATCTTCATGGACCGGTTTTCCCGGTAATCCGTATTTGCT (site CGATCATCTAG),0
14,CGATCTTCATGGACCGGTTTTCCCGGTAATCCGTATTTGCT (site CGATCCTCTAG),0.00985
15,CGATCTTCATGGACCGGTTTTCCCGGTAATCCGTATTTGCT (site CGATCGTCTAG),0.00569
16,CGATCTTCATGGACCGGTTTTCCCGGTAATCCGTATTTGCT (site CGATCTTCTAG),0.601
17,CGATGTGCATGGACCGGTTTTCCCGGTAATCCGTATTTGGC (site CGATGTGCTGC),3.02
18,CGATGTTCATGGACCGGTTTTCCCGGTAATCCGTATTTGTC (site CGATGTTCTGA),2.98
19,CGATTATCATGGACCGGTTTTCCCGGTAATCCGTATTTGCT (site CGATAATCTAG),0.446

row,Sequence,recombinant UMI read abundance (log10)
1,CGATTATCATGGACCGGTTTTCCCGGTAATCCGTATTTGCT (site CGATCATCTAG),0
2,CGATTATCATGGACCGGTTTTCCCGGTAATCCGTATTTGCT (site CGATGATCTAG),0
3,CGATTATCATGGACCGGTTTTCCCGGTAATCCGTATTTGCT (site CGATTATCTAG),2.28
4,CGATTCCCATGGACCGGTTTTCCCGGTAATCCGTATTTGCT (site CAATTCCCTAG),0.32
5,CGATTCCCATGGACCGGTTTTCCCGGTAATCCGTATTTGCT (site CCATTCCCTAG),1.03
6,CGATTCCCATGGACCGGTTTTCCCGGTAATCCGTATTTGCT (site CGATTCCCTAG),0.704
7,CGATTCCCATGGACCGGTTTTCCCGGTAATCCGTATTTGCT (site CTATTCCCTAG),0
8,CGATTGGCATGGACCGGTTTTCCCGGTAATCCGTATTTGAT (site CGATTGGCTAT),2.26
9,CGCAACACATGGACCGGTTTTCCCGGTAATCCGTATTTGCG (site CGCAACACTCG),1.19
10,CGCAACCCATGGACCGGTTTTCCCGGTAATCCGTATTTGTT (site CGCAACCCTAA),0.717
11,CGCAACCCATGGACCGGTTTTCCCGGTAATCCGTATTTGTT (site CGGAATCCTAA),0
12,CGCAATCCATGGACCGGTTTTCCCGGTAATCCGTATTTGGT (site CGCAATCCTAC),0.135
13,CGCAATCCATGGACCGGTTTTCCCGGTAATCCGTATTTGGT (site CGGAATCCTAA),0
14,CGCACCGCATGGACCGGTTTTCCCGGTAATCCGTATTTGCA (site CGCACCGCTTG),2.35
15,CGCATTACATGGACCGGTTTTCCCGGTAATCCGTATTTGCA (site CGCATTACTTG),1.64
16,CGCATTTCATGGACCGGTTTTCCCGGTAATCCGTATTTGAG (site CGCATTTCTCT),0.426
17,CGCCACTCATGGACCGGTTTTCCCGGTAATCCGTATTTGCG (site CGCCACTCTCG),2.05
18,CGCCCGACATGGACCGGTTTTCCCGGTAATCCGTATTTGCC (site CGCCCGACTGG),2.5
19,CGCCCTACATGGACCGGTTTTCCCGGTAATCCGTATTTGAG (site CACCCTACTCT),0.475

# — the supplement of paper PMC11208160
